Biological target: T1, Alpha-1B adrenergic receptor (Homo sapiens, UniProt P35368)
T1 sequence (P35368 whole entry): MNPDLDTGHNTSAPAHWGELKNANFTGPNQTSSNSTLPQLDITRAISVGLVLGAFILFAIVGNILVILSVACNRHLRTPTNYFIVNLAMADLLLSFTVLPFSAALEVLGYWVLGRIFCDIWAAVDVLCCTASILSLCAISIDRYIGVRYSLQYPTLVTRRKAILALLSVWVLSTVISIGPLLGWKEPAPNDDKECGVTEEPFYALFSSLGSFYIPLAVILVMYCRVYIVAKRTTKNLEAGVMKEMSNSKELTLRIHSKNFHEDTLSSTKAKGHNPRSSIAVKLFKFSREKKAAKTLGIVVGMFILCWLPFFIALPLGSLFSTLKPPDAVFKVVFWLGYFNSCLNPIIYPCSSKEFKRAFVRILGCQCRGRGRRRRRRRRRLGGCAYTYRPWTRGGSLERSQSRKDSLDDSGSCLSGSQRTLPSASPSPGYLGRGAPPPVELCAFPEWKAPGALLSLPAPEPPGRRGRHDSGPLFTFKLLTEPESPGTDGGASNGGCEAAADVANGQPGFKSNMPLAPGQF
Assay: Binding affinity towards human Alpha-1B adrenergic receptor by the displacement of [3H]prazosin

| Compound | Ki [µM] |
| --- | --- |
| C1CCCC(NC2=NCCO2)CC1 | 28.2 |
| C1COC(N2CCOCC2)=N1 | 1000 |
| c1ccc2c(c1)CCCC2NC1=NCCO1 (stereo unspecified) | 2.45 |

Continued, values first:

| Ki [µM] | Compound |
| --- | --- |
| 6.76 | c1ccc2c(c1)CCCC2NC1=NCCCO1 (stereo unspecified) |
| 21.4 | C1COC(NC(C2CC2)C2CC2)=N1 [CHEBI:8862] |
| 3.98 | CCC[C@H]1CCCCC1NC1=NCCO1 (stereo partly specified) |

Source: BindingDB's records for doi:10.7270/Q2GQ70ZD (n/a, 1994)
